Source: patent US20230028880A1, “CD38-BINDING AGENTS AND USES THEREOF” (Biohaven Therapeutics Ltd., priority 2019, published 2023)
Entries after “also recorded” stand apart in the source; their conditions may differ.

How the values were obtained:
[1] = tested on: NK cells (CIML and non-CIML); experiment: CIML NK cell fratricide assay; type: cell-based
Method: PBMC isolation: Leukopheresis product from a donor with body mass index (BMI) between 19-25, under 50 years old, not on immuno-suppressive drugs for at least 2 weeks with an estimated PBMC cell count of >10^10 was obtained from Key Biologics (subject ID 20982200) and transported at ambient temperature. Leukopheresis bag was wiped down with 70% EtOH, a small slit was made and contents were pipetted off into tubes. Leukopak contents were diluted 1:1 with PBS without Ca++/Mg++ and 20 ml of this mixture was layered on top of 25 mL of Ficoll. Tubes were then centrifuged at 400 g for 30 minutes without brakes. PBMCs were harvested from the interface into separate tubes, and tubes were filled to 50 mL with PBS. Cells were centrifuged for 10 min at 120 g to get rid of platelets. Supernatant was poured off and cells were re-suspended in RPMI 10% FBS at a concentration of 7-10×10^6 cells/ml. Cells were cultured overnight at 37 C in a 5% CO2 atmosphere until NK cell isolation.
NK cell isolation: PBMC were centrifuged at 400 g for 10 min and re-suspended in EasySep buffer. NK cells were isolated using NK cell isolation kits from […] Technologies according to kit's manufacturers' instructions. NK cell purity and phenotype was assessed by trypan Blue and flow cytometry using the following antibody cocktail: anti-CD56PE, CD3 APC, and viability was determined using staining with Trypan Blue exclusion dye, and by flow cytometry using Near Infra-Red Fixable viability dye (Thermo Fisher).
CIML NK cell generation: Isolated NK cells were re-suspended at 2×10^6 cells/ml in XVIVO 10% Human Serum and the following concentrations IL-15 (50 ng/ml), IL-12 (10 ng/ml), IL-18 (50 ng/ml) for 12 to 18 hrs. Cells were harvested and tested for purity and viability by Trypan Blue staining and by Flow Cytometry using Near Infra-Red Fixable viability dye (Thermo Fisher), CD3 APC (Biolegend) and CD56 PE (Biolegend).
The stock was then serially diluted in 100% DMSO to achieve 1000× concentrations to be used in the experiment. The 100% DMSO compound stock was then added to a tube and media was added to a volume of 1000 ul per 1 ul of compound and vortexed for 1 minute to ensure a homogenous mixture.
Similarly, NK cell pellets were re-suspended in Daratumumab control antibody solutions (a range of 3 ug/ml to 0.01 ug/ml in PBS 5% HSA). Resulting NK cell suspensions were aliquoted at 55 ul/well of a 96 wellv-bottom plate and were incubated for 2 hrs at 37° C. in a 5% CO2 atmosphere.

Daudi cells = experiment: Intraperitoneal lavage model: CFSE-labelled Daudi cells in SCID mice; type: in vivo; settings: I-17 1, 10, 30 mg/kg + IVIG 10 mg/mouse sub-Q, 16-18 hours (FIG. 9)
Method: On day 0 animals were weighed and randomized. Mice were assigned to different groups and treated as described below. CFSE labelled Daudi cells were prepared as follows:
• Reagents used: PBS (Sterile) • Quenching Buffer PBS+10% FBS • RPMI (no additives) no P/S; no FBS • Invitrogen—CellTrace CFSE Cell Proliferation Kit, for Flow Cytometry (Cat#C34570) • Warm the sterile PBS and all other media to 37 degree Celsius before use for all of the following procedures listed below. […]
After 16-18 hours the mice were sacrificed via CO2 asphyxiation and had their peritoneal cavity flushed with 5 mls of PBS with 1% BSA. Samples were processed and analyzed using IP Lavage Processing is described in 00765. Samples were evaluated for tumor cell counts. […]

CCCCC[C@@H]1NC(=O)[C@H](CCCNC(=N)N)NC(=O)[C@H](C)NC(=O)CSC[C@@H](C(=O)NCCOCCOCCOCCOCCOCCOCCn2nnc3c2CCC2C(CC3)C2COC(=O)N2CCC(C(=O)NCC(=O)N[C@H](CCC(=O)N[C@H](CCC(=O)N[C@H](CCC(=O)O)C(=O)N[C@H](CCC(=O)N[C@H](CCC(=O)NCC(=O)NCC(=O)N[C@@H](CC(=O)O)C(=O)N[C@H]3CSSC[C@@H](C(=O)N[C@H](C(=O)O)[C@@H](C)O)NC(=O)[C@H](Cc4c[nH]c5ccccc45)NC(=O)[C@H](C(C)C)NC(=O)[C@H](CC(C)C)NC(=O)[C@H](CCC(=O)O)NC(=O)CNC(=O)[C@H](CC(C)C)NC(=O)[C@H](Cc4c[nH]cn4)NC(=O)[C@H](Cc4c[nH]c5ccccc45)NC(=O)[C@H](C)NC3=O)C(=O)O)C(=O)O)C(=O)O)C(=O)O)CC2)NC(=O)[C@H](CC(=O)O)NC(=O)[C@H](CCCCC)NC(=O)[C@H](Cc2ccc(-c3ccccc3)cc2)NC(=O)[C@H](CC(C)C)NC(=O)[C@H](C(C)C)NC(=O)CNC(=O)[C@H](CC(=O)O)NC(=O)[C@H](Cc2c[nH]cn2)NC(=O)[C@H](Cc2ccc(O)cc2)NC1=O (some centres unmarked) [I-17]
NK cell fratricide / toxicity ([1]; 2 hr incubation, up to the highest doses (FIG. 5)): no apparent NK cell fratricide was detected; also recorded: low toxicity
increase in the percentage of dead NK cells ([1]; CIML NK cells, 2 hours post-incubation, daratumumab 3 ug/ml or 20.1 nM, I-17 +/-IVIG): no increase
increase in dead NK cells (I-17 IvIG vs DMSO IVIG control) ([1]; non-CIML NK cells, 2 h, I-17 25 uM with IVIG 500 ug/ml): 0.93%
increase in dead NK cells over DMSO treated control ([1]; non-CIML NK cells, 2 h, I-17 at 25 uM vs DMSO control): 1.7%
number of CD38 expressing Daudi cells in intraperitoneal cavity (Daudi cells): can effectively reduce the number of target cells
